This is an account of results in publication PMC4623604, “Discovery of Small Molecules that Inhibit the Disordered Protein, p27^Kip1” (Scientific Reports, 2015).

Molecules are shown by their SMILES.

The target of this assay is T1, p27-KID (Homo sapiens, UniProt P46527).
T1 construct: 6xHis (N, cleaved yes); made in house; host or cells: E. coli (pET28a)
The assay can be described thus: NMR fragment screening and 2D 1H-15N HSQC chemical shift perturbation mapping. Format: binding. Also on record: key to Binding Group (site of chemical shift perturbations in p27-KID): Molecules in Group 1 bound to a localized region, F87YY89; molecules in Group 2 bound to this region as well as two others containing two W residues (W60 and W76). Conditions: 2D 1H-15N HSQC, 100 μM 15N-p27-KID. The text has this: We used one-dimensional (1D) ^1H WaterLOGSY[35] and STD[36] […] Fragment molecules were selected from either a commercial library (1,100 compounds from the Ro3 collection, Maybridge/Thermo Fisher Scientific) or an in-house library of 1,222 compounds based on the “Rule of Three”[40] and other criteria (see Methods). […] Binding sites for these compounds were identified by titration into ^15N-p27-KID and analysis of two-dimensional (2D) ^1H-^15N HSQC spectra. […] We termed these molecules Groups 1 and 2, respectively (Fig. 1b,c); representative ^1H CSP histograms are shown in Fig. 1d,e, and ^15N CSPs are presented in Suppl. Fig. 2. Data for all other small molecules are shown in Suppl. Fig. 3.
Screening and validation NMR experiments were performed at 298 K (25 °C) using either a Varian Inova 600 MHz spectrometer equipped with a triple resonance (HCN) room temperature gradient probe or a Bruker Avance 600 MHz spectrometer equipped with TCI cryogenic gradient probe and a SampleJet sample changer. Fragment molecules were initially analyzed as pools of five molecules dissolved at 10 mM each in DMSO-D6. […] For initial fragment screening experiments, one-dimensional (1D) ^1H- and WaterLOGSY[35] NMR spectra were recorded for compound pools without and with protein. […] DMSO-D6 was added to maintain a constant concentration (2% vol/vol). […] Tryptophan and tyrosine, respectively, were titrated into ^15N-p27-KID (100 μM) up to 3 mM. Three-dimensional (3D) backbone triple-resonance experiments to establish resonance assignments for the p27 constructs were performed using the Bruker Avance 600 MHz spectrometer. […] Fig. 12b,c and d,e, respectively. 2D ^1H-^15N TROSY-HSQC NMR experiments with ^2H/^13C/^15N-p27-D2/Cdk2/cyclin A and SJ403 have been recorded at 308 K (35 °C). 2D ^1H-^15N HSQC experiments of representative fragment hits (1 mM of SJ319843, group 1 and SJ403, group 2, respectively) with ^15N-p21-KID (20 μM) were recorded at 298 K using a Bruker Avance 600 MHz spectrometer. NMR spectra were processed using Bruker Topspin software and analyzed using computer-aided resonance assignment (CARA) software.
Chemical shift perturbations are generally quantified as combined ^1H and ^15N chemical shift values. […] Thus, the use of a combined chemical shift values would mask the effects of compound binding. […] Thus, the assessment of statistical significance was based upon whether a particular CSP value was larger than, i) the experimental spectral resolution in the given dimension (^1H or ^15N) and ii) the quantity, Δδave + 2σ, for that dimension.

T1 sequence (P46527 22-105): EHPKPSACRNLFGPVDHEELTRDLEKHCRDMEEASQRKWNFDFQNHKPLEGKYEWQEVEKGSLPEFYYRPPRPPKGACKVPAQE

For `CCn1c(C)c(C)n2c3c(=O)n(C)c(=O)n(C)c3nc12` [SJ403], the “Binding Group (site of chemical shift perturbations in p27-KID)” value is on record as “Group 2”.
